Holding throughout (assay): biochemical
Assay [1] has as its target T1, panel of 374 wild-type kinases (Homo sapiens, UniProt Q99759).
T1 construct: purchased Reaction Biology Corporation
T1 sequence (Q99759 1-626): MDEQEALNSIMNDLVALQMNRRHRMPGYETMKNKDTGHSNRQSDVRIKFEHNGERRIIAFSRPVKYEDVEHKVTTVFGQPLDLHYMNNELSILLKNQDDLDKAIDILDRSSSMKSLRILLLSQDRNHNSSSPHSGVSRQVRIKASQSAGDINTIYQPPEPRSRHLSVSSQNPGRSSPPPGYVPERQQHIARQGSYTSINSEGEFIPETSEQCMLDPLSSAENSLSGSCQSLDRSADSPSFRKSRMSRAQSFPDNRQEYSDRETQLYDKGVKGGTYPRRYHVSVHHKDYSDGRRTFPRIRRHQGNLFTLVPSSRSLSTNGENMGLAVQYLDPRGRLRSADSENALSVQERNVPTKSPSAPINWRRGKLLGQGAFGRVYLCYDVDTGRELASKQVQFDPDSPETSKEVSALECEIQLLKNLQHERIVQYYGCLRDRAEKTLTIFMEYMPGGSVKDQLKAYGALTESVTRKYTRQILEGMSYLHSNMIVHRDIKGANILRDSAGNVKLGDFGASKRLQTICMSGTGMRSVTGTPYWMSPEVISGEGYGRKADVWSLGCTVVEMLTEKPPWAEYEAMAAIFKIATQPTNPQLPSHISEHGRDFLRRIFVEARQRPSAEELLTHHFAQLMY
Conditions: read-out: % Enzyme Activity (relative to DMSO controls), MEKK3.

The target in assay [2] is T2, panel of 374 wild-type kinases (Homo sapiens, UniProt P20794).
T2 construct: purchased Reaction Biology Corporation
T2 sequence (P20794 1-623): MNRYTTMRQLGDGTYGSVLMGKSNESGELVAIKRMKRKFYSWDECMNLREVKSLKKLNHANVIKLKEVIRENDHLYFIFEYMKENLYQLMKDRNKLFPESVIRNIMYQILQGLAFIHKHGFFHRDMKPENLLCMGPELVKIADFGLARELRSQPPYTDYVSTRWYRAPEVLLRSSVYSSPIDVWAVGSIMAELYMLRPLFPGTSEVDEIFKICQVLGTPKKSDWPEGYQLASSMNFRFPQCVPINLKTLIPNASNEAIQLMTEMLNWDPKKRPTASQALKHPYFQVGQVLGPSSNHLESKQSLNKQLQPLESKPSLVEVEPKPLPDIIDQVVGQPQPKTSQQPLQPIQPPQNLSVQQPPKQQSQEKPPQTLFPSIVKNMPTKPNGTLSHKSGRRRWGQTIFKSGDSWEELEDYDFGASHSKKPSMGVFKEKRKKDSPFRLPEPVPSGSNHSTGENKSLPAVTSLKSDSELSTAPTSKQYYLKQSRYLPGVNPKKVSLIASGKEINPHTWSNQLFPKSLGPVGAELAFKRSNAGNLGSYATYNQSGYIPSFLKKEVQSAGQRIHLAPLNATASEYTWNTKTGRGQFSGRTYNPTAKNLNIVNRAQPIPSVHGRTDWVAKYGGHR
Conditions: read-out: % Enzyme Activity (relative to DMSO controls), MAK.

Assay [3] concerns the target T3, panel of 374 wild-type kinases (Homo sapiens, UniProt P29597).
T3 construct: purchased Reaction Biology Corporation
The following applies: read-out: % Enzyme Activity (relative to DMSO controls), kinase TYK2.

The target in assay [4] is T4, panel of 374 wild-type kinases (Homo sapiens, UniProt O15075).
T4 construct: purchased Reaction Biology Corporation
T4 sequence (O15075 1-740): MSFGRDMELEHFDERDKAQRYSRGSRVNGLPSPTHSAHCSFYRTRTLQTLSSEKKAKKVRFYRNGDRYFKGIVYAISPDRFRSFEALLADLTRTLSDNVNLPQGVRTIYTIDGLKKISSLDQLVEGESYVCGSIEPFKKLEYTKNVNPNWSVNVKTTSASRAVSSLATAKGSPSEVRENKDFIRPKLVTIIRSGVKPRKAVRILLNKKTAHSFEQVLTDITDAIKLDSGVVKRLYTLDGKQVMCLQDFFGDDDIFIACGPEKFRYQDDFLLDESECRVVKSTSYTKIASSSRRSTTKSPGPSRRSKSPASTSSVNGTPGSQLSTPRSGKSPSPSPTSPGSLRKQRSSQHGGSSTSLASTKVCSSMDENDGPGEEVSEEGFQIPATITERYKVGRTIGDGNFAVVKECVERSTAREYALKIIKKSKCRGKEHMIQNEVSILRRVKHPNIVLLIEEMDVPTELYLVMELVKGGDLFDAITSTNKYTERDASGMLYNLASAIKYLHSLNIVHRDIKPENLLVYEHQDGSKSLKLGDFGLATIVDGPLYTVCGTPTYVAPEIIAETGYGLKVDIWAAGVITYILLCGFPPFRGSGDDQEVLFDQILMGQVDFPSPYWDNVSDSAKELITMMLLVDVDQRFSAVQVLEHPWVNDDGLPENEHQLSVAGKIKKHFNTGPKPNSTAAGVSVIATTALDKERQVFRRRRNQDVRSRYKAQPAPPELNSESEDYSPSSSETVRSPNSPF
Conditions: read-out: % Enzyme Activity (relative to DMSO controls), DCAMKL1.

Assay [5] deals with T5, panel of 374 wild-type kinases (Homo sapiens, UniProt P43405).
T5 construct: purchased Reaction Biology Corporation
The following applies: read-out: % Enzyme Activity (relative to DMSO controls), kinase SYK.

The target in assay [6] is T6, panel of 374 wild-type kinases (Homo sapiens, UniProt P46734).
T6 construct: purchased Reaction Biology Corporation
T6 sequence (P46734 1-347): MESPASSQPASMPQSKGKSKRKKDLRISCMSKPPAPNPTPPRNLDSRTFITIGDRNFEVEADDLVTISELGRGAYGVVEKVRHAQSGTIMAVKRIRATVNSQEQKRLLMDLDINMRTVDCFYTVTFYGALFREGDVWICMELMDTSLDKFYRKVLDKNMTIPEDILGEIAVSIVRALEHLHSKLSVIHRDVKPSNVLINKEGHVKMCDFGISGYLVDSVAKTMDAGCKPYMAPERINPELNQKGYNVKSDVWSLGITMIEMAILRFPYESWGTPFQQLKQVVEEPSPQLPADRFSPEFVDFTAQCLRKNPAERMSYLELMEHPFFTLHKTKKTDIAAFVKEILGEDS
Conditions: read-out: % Enzyme Activity (relative to DMSO controls), MEK3.

T3 sequence (P29597 whole entry): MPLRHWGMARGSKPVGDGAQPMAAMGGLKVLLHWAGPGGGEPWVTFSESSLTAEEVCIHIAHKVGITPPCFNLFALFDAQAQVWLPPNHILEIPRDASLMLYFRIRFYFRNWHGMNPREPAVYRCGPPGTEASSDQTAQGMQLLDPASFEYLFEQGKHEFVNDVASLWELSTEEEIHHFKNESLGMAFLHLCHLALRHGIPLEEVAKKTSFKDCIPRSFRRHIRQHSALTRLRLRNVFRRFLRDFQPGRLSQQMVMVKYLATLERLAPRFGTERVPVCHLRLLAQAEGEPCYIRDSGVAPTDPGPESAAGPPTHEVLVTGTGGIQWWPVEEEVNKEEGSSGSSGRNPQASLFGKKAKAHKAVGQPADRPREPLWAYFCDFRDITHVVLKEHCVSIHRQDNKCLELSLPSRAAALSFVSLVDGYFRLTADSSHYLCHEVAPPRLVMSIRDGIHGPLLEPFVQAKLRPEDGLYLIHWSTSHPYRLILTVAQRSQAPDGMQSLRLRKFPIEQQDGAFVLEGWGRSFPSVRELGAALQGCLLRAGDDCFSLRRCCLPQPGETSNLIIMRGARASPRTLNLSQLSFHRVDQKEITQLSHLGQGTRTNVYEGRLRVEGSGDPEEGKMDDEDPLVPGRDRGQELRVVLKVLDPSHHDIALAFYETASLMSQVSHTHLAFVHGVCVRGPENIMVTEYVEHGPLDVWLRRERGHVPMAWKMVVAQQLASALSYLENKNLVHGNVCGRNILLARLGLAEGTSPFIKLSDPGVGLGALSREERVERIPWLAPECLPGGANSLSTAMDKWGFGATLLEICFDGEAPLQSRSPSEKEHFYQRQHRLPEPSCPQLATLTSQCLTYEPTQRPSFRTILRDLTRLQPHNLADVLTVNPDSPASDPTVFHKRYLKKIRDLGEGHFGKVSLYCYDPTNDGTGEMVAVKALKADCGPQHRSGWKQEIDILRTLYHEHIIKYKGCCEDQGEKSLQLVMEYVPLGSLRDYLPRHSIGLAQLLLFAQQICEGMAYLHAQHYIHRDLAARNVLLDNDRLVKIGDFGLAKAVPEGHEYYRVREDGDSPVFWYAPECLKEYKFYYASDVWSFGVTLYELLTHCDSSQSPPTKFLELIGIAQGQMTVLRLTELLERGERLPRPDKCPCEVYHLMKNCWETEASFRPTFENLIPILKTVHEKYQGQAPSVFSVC

Consider `Cc1sc(C(=O)NC2COC2)cc1-n1cc(NC(=O)Nc2c(F)cccc2Cl)cn1` [Compound 27, 4-(4-(3-(2-chloro-6-fluorophenyl)ureido)-1H-pyrazol-1-yl)-5-methyl-N-(oxetan-3-yl)thiophene-2-carboxamide], for which the remaining activity at 10 µM in assay [1] (10 uM) is 113%; in assay [2] (10 uM), 120%; in assay [3] (10 uM), 114%; in assay [4] (10 uM), 67.2%; in assay [5] (10 uM) it was 88.5%; in assay [6] (10 uM), 88.8%.
Take `O=C(Nc1cnn(-c2csc(C(=O)NC3COC3)c2)c1)Nc1c(F)cccc1Cl` [Compound 25, 4-(4-(3-(2-chloro-6-fluorophenyl)ureido)-1H-pyrazol-1-yl)-N-(oxetan-3-yl)thiophene-2-carboxamide]: the remaining activity at 5 µM was found to be 81.9% in assay [1]; 97.6% in assay [2]; 89.3% in assay [3]; 84.2% in assay [4]; 90.3% in assay [5]; 111% in assay [6].
As to `O=C(Nc1cnn(-c2csc(C(=O)NC3COC3)c2)c1)Nc1ccccc1Cl` [Compound 17, 4-(4-(3-(2-chlorophenyl)ureido)-1H-pyrazol-1-yl)-N-(oxetan-3-yl)thiophene-2-carboxamide], the remaining activity at 5 µM stood at 113% in assay [1]; 98.8% in assay [2]; 95.9% in assay [3]; 99.2% in assay [4]; 104% in assay [5]; 104% in assay [6].
